In US20040116352A1, “Active substance combination containing a compound with an opioid effect and at least one further compound of formula 1” (priority 2000, published 2004):

System: rats
Experiment: Tail-flick (focal-ray) test on rats
Type: in vivo, rat
Conditions: female Sprague Dawley rats, intravenous, 1.46 mg/kg morphine only, measured 10, 20, 40 and 60 min after application, FIGS. 1 and 2
Description: The analgesic effect of the inventive active substance combinations and the comparative solutions was investigated in the focal-ray (tail-flick) test on rats according to D'Amour and Smith, J. Pharm. Exp. Ther. Vol. 72, pages 74-79, 1941. For this, female Sprague Dawley rats (Janvier, France) weighing between 120 and 150 g were used.
The rats were each placed in a test cage and the base of the tail exposed to the focused radiant heat from an electric lamp (tail-flick type 50/08/1.bc, Labtec, Dr. Hess). The lamp intensity was set so that the time from when the lamp was switched on until the tail was suddenly jerked away (pain latency) was 3 to 5 seconds in untreated rats. Before the application of the inventive active substance combinations and the comparative solutions, the rats were pre-tested twice within five minutes and the mean value of these measurements calculated as the pre-test mean value. The solutions of the inventive active substance combinations and the comparative solutions were then applied intravenously. The pain measurements were performed at 10, 20, 40 and 60 minutes respectively after the intravenous application. The analgesic effect was determined as an increase in the pain latency (% of the maximum possible antinociceptive effect) according to the following formula: […]

## CN1CC[C@]23c4c5ccc(O)c4O[C@H]2[C@@H](O)C=C[C@H]3[C@H]1C5 [Comparative Example 1, morphine]
  analgesic effect (increase in pain latency, % of the maximum possible antinociceptive effect): good analgesic effect
